Values quoted from earlier work as cited in patent US20240170163A1, “SYSTEMS AND METHODS FOR DETECTING NEW DRUG PROPERTIES IN TARGET-BASED DRUG-DRUG SIMILARITY NETWORKS” (priority 2021, published 2024).

Columns and labels:
Klebsiella pneumoniae = conditions: in vitro
Candida albicans = conditions: in vitro
Candida = conditions: liquid formulation, in vitro
prostate carcinoma cells = conditions: in vitro
[1] = system: chronic lymphocytic leukemia (CLL)
[2] = system: PR-transfected MDA-MB-231 cells

N=C(N)NC(=O)c1nc(Cl)c(N)nc1N [Amiloride]
activation of the dendritic cells (dendritic cells): inhibits the activation
inflammation (dendritic cells; besides its diuretic effects): ameliorates the inflammation

FC(F)OC(Cl)C(F)(F)F (stereo not shown) [Isoflurane]
inhibitory effects on cultures of Klebsiella pneumoniae (Klebsiella pneumoniae): excellent inhibitory effects
inhibitory effects on cultures of Candida albicans (Candida albicans): excellent inhibitory effects
anti-Candida activity compared with Amphotericin B (Candida): better anti-Candida activity

COC(F)(F)C(Cl)Cl [Methoxyflurane]
inhibitory effects on cultures of Klebsiella pneumoniae (Klebsiella pneumoniae): excellent inhibitory effects
inhibitory effects on cultures of Candida albicans (Candida albicans): excellent inhibitory effects

NC(Cn1ccc(=O)c(O)c1)C(=O)O (stereo not shown) [Mimosine]
cell proliferation of prostate carcinoma cells (prostate carcinoma cells): attenuates cell proliferation

COc1cc([C@@H]2c3cc4c(cc3[C@H](O)[C@H]3COC(=O)[C@H]23)OCO4)cc(OC)c1OC [Podofilox]
cytotoxicity in chronic lymphocytic leukemia (CLL) [1]: potent cytotoxic agent

CC(=O)[C@H]1CC[C@H]2[C@@H]3CCC4=CC(=O)CC[C@]4(C)[C@H]3CC[C@]12C [Progesterone]
expression of genes involved in cell proliferation and metastasis [2]: suppressed the expression

CCN(CC)CCCC(C)Nc1c2ccc(Cl)cc2nc2ccc(OC)cc12 (stereo not shown) [Quinacrine]
DNA damage in breast cancer (breast cancer): induces DNA damage
apoptosis / cell cycle effect in breast cancer (breast cancer): produces apoptosis by blocking cells in S-phase
topoisomerase activity in breast cancer (breast cancer): inhibits topoisomerase activity
